Experimental data from publication PMC12669672, “Structural insights into selective and dual antagonism of EP2 and EP4 prostaglandin receptors” (The EMBO Journal, 2025).
Where “and” joins values, the source holds several entries; their conditions need not be identical. Identical values can stand only once. Like-named read-outs stand apart in the source and are kept apart here.

Key:
Assay in all cases: GloSensor cAMP assay, inhibition of constitutive activity
Format in all cases: cell-based
[1] = biological target: T1, constitutively active EP2 S308A (Homo sapiens, UniProt P43116, S308A)
T1 construct: The full-length EP2 or EP4 was cloned into the pcDNA3.1 vector; FLAG (N); expressed in transfected cells; host or cells: AD293 cells
Protocol: (§1) The full-length EP2 or EP4 was cloned into the pcDNA3.1 vector (Invitrogen), incorporating an N-terminal FLAG tag. AD293 cells were seeded in six-well plates containing DMEM supplemented with 10% dialyzed FBS 1 day prior to transfection. Following overnight growth, cells were transfected with a 1:1 ratio of receptor construct and GloSensor22F cAMP biosensor (Promega) plasmids.
(§2) Twenty-four hours post-transfection, the cells were transferred to CO2-independent media containing 2% GloSensor cAMP Reagent (Promega) and distributed into 384-well assay plates at a density of 4000 cells per well in 10 μL. […] The plates were then incubated at 37 °C for an additional hour before luminescence measurements were taken using an EnVision plate reader.
(§3) Data analysis was performed using GraphPad Prism software v8.0.1. A nonlinear regression analysis, employing a sigmoidal dose–response model, was conducted to determine the Emax values and half-maximum inhibitory concentrations (IC50) for each compound tested.

[2] = biological target: T2, constitutively active EP2 S86A (Homo sapiens, UniProt P43116, S86A)
T2 construct: The full-length EP2 or EP4 was cloned into the pcDNA3.1 vector; FLAG (N); expressed in transfected cells; host or cells: AD293 cells
Protocol: as §1, §2, §3

[3] = biological target: T3, constitutively active EP4 V320A (Homo sapiens, UniProt P35408, V320A)
T3 construct: The full-length EP2 or EP4 was cloned into the pcDNA3.1 vector (Invitrogen), incorporating an N-terminal FLAG tag; expressed in transfected cells; host or cells: AD293
Protocol: as §1, §2, §3

[4] = biological target: T4, constitutively active EP4 WT (Homo sapiens, UniProt P35408)
T4 construct: The full-length EP2 or EP4 was cloned into the pcDNA3.1 vector (Invitrogen), incorporating an N-terminal FLAG tag; expressed in transfected cells; host or cells: AD293
Protocol: as §1, §2, §3

[5] = biological target: T5, constitutively active EP2 WT (Homo sapiens, UniProt P43116)
T5 construct: The full-length EP2 or EP4 was cloned into the pcDNA3.1 vector; FLAG (N); expressed in transfected cells; host or cells: AD293 cells
Protocol: as §1, §2, §3

[6] = biological target: T6, constitutively active EP2 T82A (Homo sapiens, UniProt P43116, T82A)
T6 construct: The full-length EP2 or EP4 was cloned into the pcDNA3.1 vector; FLAG (N); expressed in transfected cells; host or cells: AD293 cells
Protocol: as §1, §2, §3

[7] = biological target: T7, constitutively active EP4 S319A (Homo sapiens, UniProt P35408, S319A)
T7 construct: The full-length EP2 or EP4 was cloned into the pcDNA3.1 vector (Invitrogen), incorporating an N-terminal FLAG tag; expressed in transfected cells; host or cells: AD293
Protocol: as §1, §2, §3

[8] = no PGE2, pIC50 mutant - pIC50 WT, mean

T4 sequence (P35408 whole entry): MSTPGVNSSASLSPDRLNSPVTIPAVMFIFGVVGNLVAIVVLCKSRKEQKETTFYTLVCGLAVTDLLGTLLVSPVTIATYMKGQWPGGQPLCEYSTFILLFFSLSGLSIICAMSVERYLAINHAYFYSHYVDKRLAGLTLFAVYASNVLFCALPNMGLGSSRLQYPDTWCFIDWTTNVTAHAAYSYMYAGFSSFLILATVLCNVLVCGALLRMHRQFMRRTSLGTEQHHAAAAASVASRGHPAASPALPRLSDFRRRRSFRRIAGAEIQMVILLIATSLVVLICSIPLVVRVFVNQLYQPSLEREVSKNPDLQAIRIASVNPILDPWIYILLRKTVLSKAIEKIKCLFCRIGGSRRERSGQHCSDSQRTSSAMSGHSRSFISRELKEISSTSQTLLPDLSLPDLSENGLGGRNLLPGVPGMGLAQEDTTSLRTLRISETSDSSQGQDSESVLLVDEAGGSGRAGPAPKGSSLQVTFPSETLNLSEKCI
T7 sequence (P35408 whole entry S319A): as the sequence (P35408 whole entry) above, with S319A counted along it
T5 sequence (P43116 whole entry): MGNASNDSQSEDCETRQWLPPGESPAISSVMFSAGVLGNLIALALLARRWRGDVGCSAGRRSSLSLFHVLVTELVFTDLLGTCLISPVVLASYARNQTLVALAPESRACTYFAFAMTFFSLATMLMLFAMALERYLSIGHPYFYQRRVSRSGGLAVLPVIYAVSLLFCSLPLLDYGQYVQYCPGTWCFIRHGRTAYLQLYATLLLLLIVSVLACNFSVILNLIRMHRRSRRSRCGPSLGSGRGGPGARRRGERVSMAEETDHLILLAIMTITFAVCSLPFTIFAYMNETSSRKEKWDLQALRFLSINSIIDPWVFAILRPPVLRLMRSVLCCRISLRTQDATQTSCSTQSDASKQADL
T2 sequence (P43116 whole entry S86A): as the sequence (P43116 whole entry) above, with S86A counted along it
T1 sequence (P43116 whole entry S308A): as the sequence (P43116 whole entry) above, with S308A counted along it
T6 sequence (P43116 whole entry T82A): as the sequence (P43116 whole entry) above, with T82A counted along it
T3 sequence (P35408 whole entry V320A): as the sequence (P35408 whole entry) above, with V320A counted along it

CCc1nnc(NS(=O)(=O)c2ccc(NC(=S)NC(=O)/C=C/c3ccc(F)cc3)cc2)s1 [TG6-129]
IC50 [1]: 58.9 nM | remaining activity at 0.0001 µM ([1]; 1 h, TG6-129 log([M]) -10, EP2-S308A, read-out: % cAMP activity (normalized to WT)): 87.7% | TG6-129 cAMP activity (∆pIC50 from EP2 WT), Mean ([1]; S308A, Mean): 0.246 | IC50 [2]: 603 nM | TG6-129 cAMP activity (∆pIC50 from EP2 WT), Mean ([2]; S86A, Mean): -0.670 | TG6-129 cAMP activity (∆pIC50 from EP2 WT) ([2]; S86A, single experiments 1st-3rd): -0.744 and -0.540 and -0.726 | ΔpIC50 [2, 8]: -0.67 ± 0.07 | IC50 [3]: 6760 nM | remaining activity at 100 µM ([3]; 1 h, TG6-129 log([M]) -4.00, EP4-V320A, read-out: % cAMP activity (normalized to WT)): 8.24% | remaining activity at 20 µM ([3]; 1 h, TG6-129 log([M]) -4.70, EP4-V320A, read-out: % cAMP activity (normalized to WT)): 16% | remaining activity at […] ([3]; 1 h, TG6-129 log([M]) -5.40, EP4-V320A, read-out: % cAMP activity (normalized to WT)): 41.7% | remaining activity at […] ([3]; 1 h, TG6-129 log([M]) -6.10, EP4-V320A, read-out: % cAMP activity (normalized to WT)): 57.4% | remaining activity at […] ([3]; 1 h, TG6-129 log([M]) -6.80, EP4-V320A, read-out: % cAMP activity (normalized to WT)): 59.5% | remaining activity at 0.0324 µM ([3]; 1 h, TG6-129 log([M]) -7.49, EP4-V320A, read-out: % cAMP activity (normalized to WT)): 49.7% | remaining activity at 0.00646 µM ([3]; 1 h, TG6-129 log([M]) -8.19, EP4-V320A, read-out: % cAMP activity (normalized to WT)): 54.3% | remaining activity at 0.00129 µM ([3]; 1 h, TG6-129 log([M]) -8.89, EP4-V320A, read-out: % cAMP activity (normalized to WT)): 60.2% | TG6-129 cAMP activity (∆pIC50 from EP4 WT), Mean ([3]; V320A, Mean): -0.014 | TG6-129 cAMP activity (∆pIC50 from EP4 WT) ([3]; V320A, single experiments 1st-3rd): 0.016 and -0.105 and 0.048 | ΔpIC50 [3, 8]: -0.01 ± 0.04 | IC50 [4]: 5010 nM | remaining activity at 100 µM ([4]; 1 h, TG6-129 log([M]) -4.00, EP4-WT, read-out: % cAMP activity (normalized to WT)): 7.78% | remaining activity at […] ([4]; 1 h, TG6-129 log([M]) -4.70, EP4-WT, read-out: % cAMP activity (normalized to WT)): 22.1% | remaining activity at […] ([4]; 1 h, TG6-129 log([M]) -5.40, EP4-WT, read-out: % cAMP activity (normalized to WT)): 65.6% | remaining activity at […] ([4]; 1 h, TG6-129 log([M]) -6.10, EP4-WT, read-out: % cAMP activity (normalized to WT)): 88.8% | remaining activity at 0.1585 µM ([4]; 1 h, TG6-129 log([M]) -6.80, EP4-WT, read-out: % cAMP activity (normalized to WT)): 91.8% | remaining activity at 0.03236 µM ([4]; 1 h, TG6-129 log([M]) -7.49, EP4-WT, read-out: % cAMP activity (normalized to WT)): 96% | remaining activity at 0.006457 µM ([4]; 1 h, TG6-129 log([M]) -8.19, EP4-WT, read-out: % cAMP activity (normalized to WT)): 103% | remaining activity at 0.001288 µM ([4]; 1 h, TG6-129 log([M]) -8.89, EP4-WT, read-out: % cAMP activity (normalized to WT)): 106% | TG6-129 cAMP activity (∆pIC50 from EP4 WT) ([4]; WT, single experiments 1st-3rd): -0.065 and 0.051 and 0.101 | IC50 [5]: 87.1 nM | remaining activity at 10 µM ([5]; 1 h, TG6-129 log([M]) -5, EP2-WT, read-out: % cAMP activity (normalized to WT)): 3.2% | remaining activity at 1 µM ([5]; 1 h, TG6-129 log([M]) -6, EP2-WT, read-out: % cAMP activity (normalized to WT)): 6.32% | remaining activity at 0.1 µM ([5]; 1 h, TG6-129 log([M]) -7, EP2-WT, read-out: % cAMP activity (normalized to WT)): 34.4% | remaining activity at 0.001 µM ([5]; 1 h, TG6-129 log([M]) -9, EP2-WT, read-out: % cAMP activity (normalized to WT)): 94.3% | remaining activity at 0.0001 µM ([5]; 1 h, TG6-129 log([M]) -10, EP2-WT, read-out: % cAMP activity (normalized to WT)): 104% | remaining activity at 10 pM ([5]; 1 h, TG6-129 log([M]) -11, EP2-WT, read-out: % cAMP activity (normalized to WT)): 100% | remaining activity at 1 pM ([5]; 1 h, TG6-129 log([M]) -12, EP2-WT, read-out: % cAMP activity (normalized to WT)): 88.6% | TG6-129 cAMP activity (∆pIC50 from EP2 WT) ([5]; WT, single experiments 1st-3rd): -0.062 and 0.053 and 0.096 | IC50 [6]: 219 nM | TG6-129 cAMP activity (∆pIC50 from EP2 WT), Mean ([6]; T82A, Mean): -0.316 | TG6-129 cAMP activity (∆pIC50 from EP2 WT) ([6]; T82A, single experiments 1st-3rd): -0.298 and -0.466 and -0.185 | IC50 [7]: 20000 nM | remaining activity at 100 µM ([7]; 1 h, TG6-129 log([M]) -4.00, EP4-S319A, read-out: % cAMP activity (normalized to WT)): 6.8% | remaining activity at […] ([7]; 1 h, TG6-129 log([M]) -4.70, EP4-S319A, read-out: % cAMP activity (normalized to WT)): 46.6% | remaining activity at 0.006457 µM ([7]; 1 h, TG6-129 log([M]) -8.19, EP4-S319A, read-out: % cAMP activity (normalized to WT)): 114% | remaining activity at 0.001288 µM ([7]; 1 h, TG6-129 log([M]) -8.89, EP4-S319A, read-out: % cAMP activity (normalized to WT)): 108% | TG6-129 cAMP activity (∆pIC50 from EP4 WT), Mean ([7]; S319A, Mean): -0.460 | TG6-129 cAMP activity (∆pIC50 from EP4 WT) ([7]; S319A, single experiments 1st-3rd): -0.435 and -0.502 and -0.443 | ΔpIC50 [7, 8]: -0.46 ± 0.02
